Results taken from ChEMBL document CHEMBL5653615 (J Biol Chem, 2013).

Key:
[1] = biological target: RAC-alpha serine/threonine-protein kinase (Homo sapiens) (UniProt P31749); assay: Inhibition of human AKT1 at 18.6 nM by HotSpot assay relative to control
[2] = biological target: Protein-tyrosine kinase 6 (Homo sapiens) (UniProt Q13882); assay: Inhibition of human BRK at 18.6 nM by HotSpot assay relative to control
[3] = biological target: Calcium/calmodulin-dependent protein kinase type 1G (Homo sapiens) (UniProt Q96NX5); assay: Inhibition of human CAMK1g at 18.6 nM by HotSpot assay relative to control
Chain of Calcium/calmodulin-dependent protein kinase type 1G (Homo sapiens) (Q96NX5 whole entry): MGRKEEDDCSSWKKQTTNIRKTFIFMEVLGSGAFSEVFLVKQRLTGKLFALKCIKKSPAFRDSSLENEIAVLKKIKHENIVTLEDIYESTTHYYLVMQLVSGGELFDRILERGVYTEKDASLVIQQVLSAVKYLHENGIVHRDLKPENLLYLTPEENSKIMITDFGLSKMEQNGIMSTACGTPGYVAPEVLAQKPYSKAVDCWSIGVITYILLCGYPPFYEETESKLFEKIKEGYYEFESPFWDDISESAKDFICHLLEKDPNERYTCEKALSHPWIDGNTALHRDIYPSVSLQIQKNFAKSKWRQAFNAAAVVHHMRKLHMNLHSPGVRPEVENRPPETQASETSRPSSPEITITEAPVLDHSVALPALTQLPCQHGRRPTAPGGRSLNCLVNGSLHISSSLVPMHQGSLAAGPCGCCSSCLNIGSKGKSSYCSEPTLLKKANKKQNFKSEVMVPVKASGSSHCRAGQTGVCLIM

[4] = biological target: T1, cGMP-dependent protein kinase 1 (Homo sapiens) (UniProt Q13976); assay: Inhibition of human PKG1a at 18.6 nM by HotSpot assay relative to control
T1 sequence (whole entry): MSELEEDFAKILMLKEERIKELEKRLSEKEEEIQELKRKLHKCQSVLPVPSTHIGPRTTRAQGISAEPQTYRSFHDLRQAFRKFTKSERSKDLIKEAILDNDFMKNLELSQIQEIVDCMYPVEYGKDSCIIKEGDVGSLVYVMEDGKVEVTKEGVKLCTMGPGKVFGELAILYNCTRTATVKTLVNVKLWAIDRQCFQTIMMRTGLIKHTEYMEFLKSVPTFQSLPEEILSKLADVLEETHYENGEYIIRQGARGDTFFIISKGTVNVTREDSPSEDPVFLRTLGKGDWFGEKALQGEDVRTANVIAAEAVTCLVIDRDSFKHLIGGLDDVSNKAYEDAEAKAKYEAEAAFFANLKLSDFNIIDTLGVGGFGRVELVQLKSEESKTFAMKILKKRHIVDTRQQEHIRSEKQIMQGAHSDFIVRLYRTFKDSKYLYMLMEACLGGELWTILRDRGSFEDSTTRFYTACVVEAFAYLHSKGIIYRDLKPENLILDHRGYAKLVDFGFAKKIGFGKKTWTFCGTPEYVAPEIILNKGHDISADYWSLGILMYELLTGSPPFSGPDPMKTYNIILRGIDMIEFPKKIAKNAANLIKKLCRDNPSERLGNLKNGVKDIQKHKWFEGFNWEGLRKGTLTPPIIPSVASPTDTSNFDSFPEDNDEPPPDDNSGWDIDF

[5] = biological target: T2, Serine/threonine-protein kinase BRSK1 (Homo sapiens) (UniProt Q8TDC3); assay: Inhibition of human BRSK1 at 1.82 nM by HotSpot assay relative to control
T2 sequence (whole entry): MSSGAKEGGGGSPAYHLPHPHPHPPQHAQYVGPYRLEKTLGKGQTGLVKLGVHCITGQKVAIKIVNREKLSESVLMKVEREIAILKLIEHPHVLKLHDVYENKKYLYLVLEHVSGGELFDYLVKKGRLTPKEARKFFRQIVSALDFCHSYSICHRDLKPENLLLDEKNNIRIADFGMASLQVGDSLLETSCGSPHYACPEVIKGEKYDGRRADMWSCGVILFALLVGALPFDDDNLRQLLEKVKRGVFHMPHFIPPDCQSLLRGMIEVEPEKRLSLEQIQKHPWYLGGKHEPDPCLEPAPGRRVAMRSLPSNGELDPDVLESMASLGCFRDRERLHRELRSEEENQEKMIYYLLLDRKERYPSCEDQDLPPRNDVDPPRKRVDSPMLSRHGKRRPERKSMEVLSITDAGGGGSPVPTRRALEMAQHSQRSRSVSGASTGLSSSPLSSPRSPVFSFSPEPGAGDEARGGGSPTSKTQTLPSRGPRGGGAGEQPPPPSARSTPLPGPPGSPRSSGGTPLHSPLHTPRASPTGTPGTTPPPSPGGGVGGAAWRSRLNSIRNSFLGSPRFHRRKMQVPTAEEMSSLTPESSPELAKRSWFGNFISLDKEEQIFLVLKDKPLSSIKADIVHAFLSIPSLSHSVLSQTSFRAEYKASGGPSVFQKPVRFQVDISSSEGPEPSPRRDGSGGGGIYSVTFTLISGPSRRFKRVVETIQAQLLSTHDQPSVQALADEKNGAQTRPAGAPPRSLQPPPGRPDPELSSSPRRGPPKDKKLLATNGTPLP

[6] = biological target: T3, Serine/threonine-protein kinase 17A (Homo sapiens) (UniProt Q9UEE5); assay: Inhibition of human DRAK1 at 1.82 nM by HotSpot assay relative to control
T3 sequence (whole entry): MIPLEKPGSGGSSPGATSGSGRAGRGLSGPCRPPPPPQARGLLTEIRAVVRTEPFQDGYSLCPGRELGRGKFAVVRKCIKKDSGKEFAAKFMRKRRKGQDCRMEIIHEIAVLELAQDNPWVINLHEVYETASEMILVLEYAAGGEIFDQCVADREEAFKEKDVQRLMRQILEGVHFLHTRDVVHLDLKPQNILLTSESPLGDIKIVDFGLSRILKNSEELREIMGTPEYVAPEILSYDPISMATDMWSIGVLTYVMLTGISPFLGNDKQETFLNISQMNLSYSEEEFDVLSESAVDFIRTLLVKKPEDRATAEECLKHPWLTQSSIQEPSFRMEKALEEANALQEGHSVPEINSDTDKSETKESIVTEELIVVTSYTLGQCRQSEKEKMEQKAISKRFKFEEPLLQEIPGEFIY

[7] = biological target: Tyrosine-protein kinase Fgr (Homo sapiens) (UniProt P09769); assay: Inhibition of human FGR at 1.82 nM by HotSpot assay relative to control
Chain of Tyrosine-protein kinase Fgr (Homo sapiens) (P09769 2-529 limits assumed): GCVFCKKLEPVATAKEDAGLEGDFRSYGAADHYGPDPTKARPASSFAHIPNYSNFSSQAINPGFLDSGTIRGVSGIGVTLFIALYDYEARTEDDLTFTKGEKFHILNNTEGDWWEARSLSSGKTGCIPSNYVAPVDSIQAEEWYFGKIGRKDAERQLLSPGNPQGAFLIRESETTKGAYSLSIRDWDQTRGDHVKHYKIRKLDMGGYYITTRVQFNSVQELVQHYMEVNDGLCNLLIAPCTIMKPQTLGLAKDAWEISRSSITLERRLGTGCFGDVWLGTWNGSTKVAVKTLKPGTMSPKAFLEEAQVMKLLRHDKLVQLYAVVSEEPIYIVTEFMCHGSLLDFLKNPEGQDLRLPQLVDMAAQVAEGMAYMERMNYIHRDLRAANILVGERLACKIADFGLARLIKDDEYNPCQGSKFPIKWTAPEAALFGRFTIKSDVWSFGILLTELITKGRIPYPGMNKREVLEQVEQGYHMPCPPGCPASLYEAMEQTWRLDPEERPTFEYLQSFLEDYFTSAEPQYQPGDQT

[8] = biological target: T4, Protein kinase C iota type (Homo sapiens) (UniProt P41743); assay: Inhibition of human PKCiota at 1.82 nM by HotSpot assay relative to control
T4 sequence (whole entry): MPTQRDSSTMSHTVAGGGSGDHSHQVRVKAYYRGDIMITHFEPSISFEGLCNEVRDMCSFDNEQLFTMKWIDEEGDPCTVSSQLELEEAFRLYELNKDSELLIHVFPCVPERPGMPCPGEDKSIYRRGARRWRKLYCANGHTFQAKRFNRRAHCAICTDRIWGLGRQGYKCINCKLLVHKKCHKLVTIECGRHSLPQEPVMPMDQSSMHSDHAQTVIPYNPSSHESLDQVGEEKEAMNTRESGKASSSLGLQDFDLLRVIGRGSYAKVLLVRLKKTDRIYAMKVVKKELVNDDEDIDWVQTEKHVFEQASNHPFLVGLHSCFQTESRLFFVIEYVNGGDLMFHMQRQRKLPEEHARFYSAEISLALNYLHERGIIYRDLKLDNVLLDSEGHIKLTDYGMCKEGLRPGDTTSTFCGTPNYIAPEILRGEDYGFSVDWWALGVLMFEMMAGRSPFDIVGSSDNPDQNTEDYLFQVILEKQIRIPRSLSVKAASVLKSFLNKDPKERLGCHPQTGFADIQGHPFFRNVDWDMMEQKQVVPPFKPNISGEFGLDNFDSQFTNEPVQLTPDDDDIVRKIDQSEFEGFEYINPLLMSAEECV

Chain of RAC-alpha serine/threonine-protein kinase (Homo sapiens) (P31749 whole entry): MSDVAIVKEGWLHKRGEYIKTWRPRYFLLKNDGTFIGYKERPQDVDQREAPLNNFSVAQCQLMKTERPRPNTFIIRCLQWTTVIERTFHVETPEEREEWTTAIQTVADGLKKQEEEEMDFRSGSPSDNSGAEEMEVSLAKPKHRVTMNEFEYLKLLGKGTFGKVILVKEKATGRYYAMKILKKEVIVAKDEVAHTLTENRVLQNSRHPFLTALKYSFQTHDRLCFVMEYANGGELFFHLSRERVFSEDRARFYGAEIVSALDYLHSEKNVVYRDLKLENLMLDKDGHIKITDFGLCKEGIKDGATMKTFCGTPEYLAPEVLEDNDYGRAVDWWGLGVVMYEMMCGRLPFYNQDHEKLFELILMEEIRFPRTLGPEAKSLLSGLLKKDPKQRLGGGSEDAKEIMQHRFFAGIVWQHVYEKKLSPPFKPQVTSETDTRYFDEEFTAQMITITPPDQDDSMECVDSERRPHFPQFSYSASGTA
Chain of Protein-tyrosine kinase 6 (Homo sapiens) (Q13882 whole entry, looked up): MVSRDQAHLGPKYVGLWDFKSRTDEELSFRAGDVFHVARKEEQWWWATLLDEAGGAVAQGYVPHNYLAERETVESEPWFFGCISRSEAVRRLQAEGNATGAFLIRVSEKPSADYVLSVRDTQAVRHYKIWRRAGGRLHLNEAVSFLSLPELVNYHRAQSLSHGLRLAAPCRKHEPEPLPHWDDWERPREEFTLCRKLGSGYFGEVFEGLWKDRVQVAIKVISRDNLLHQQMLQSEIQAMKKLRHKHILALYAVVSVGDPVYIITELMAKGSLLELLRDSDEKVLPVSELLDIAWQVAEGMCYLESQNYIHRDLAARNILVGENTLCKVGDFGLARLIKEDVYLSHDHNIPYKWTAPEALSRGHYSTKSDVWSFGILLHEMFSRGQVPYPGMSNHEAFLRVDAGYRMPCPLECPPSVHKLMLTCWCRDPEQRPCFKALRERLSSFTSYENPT

| inhibition [1] | inhibition [2] | inhibition [3] | inhibition [4] | inhibition [5] | inhibition [6] | inhibition [7] | inhibition [8] | SMILES |
| --- | --- | --- | --- | --- | --- | --- | --- | --- |
| -3.01% | 3.64% | 6.69% | 5.49% |  |  |  |  | C[C@]1(O)C[C@@H](c2nc(-c3ccc4ccc(-c5ccccc5)nc4c3)c3c(N)nccn32)C1 |
|  |  |  |  | -0.42% | 2.5% | -3.39% | -0.86% | C[C@@]1(C(=O)Nc2ccc(F)nc2)CCCN1c1nc(Nc2cc(C3CC3)n[nH]2)c2cccn2n1 |
